Data reported in PMC9535023, “Inhibition of phospholipase D1 induces immunogenic cell death and potentiates cancer immunotherapy in colorectal cancer” (Experimental & Molecular Medicine, 2022).

What was measured:
[1] = system: PLD; test: PLD activity assay in DLD1 cells; assay type: cell-based; conditions: compared to unsubstituted congener
Description: (§1) Cells were labeled with [H^3] myristic acid, and PLD activity was assessed by measuring the formation of [H^3] phosphatidylbutanol, which is the product of PLD-mediated transphosphatidylation, in the presence of 1-butanol, as previously described.

[2] = molecular target: T1, PLD1 (Homo sapiens, UniProt Q13393); test: Streptavidin pull-down assay, PLD1; assay type: binding; conditions: 10 μM, various CRC cell lysates
T1 construct: endogenous in cells
T1 sequence (Q13393 1-1074): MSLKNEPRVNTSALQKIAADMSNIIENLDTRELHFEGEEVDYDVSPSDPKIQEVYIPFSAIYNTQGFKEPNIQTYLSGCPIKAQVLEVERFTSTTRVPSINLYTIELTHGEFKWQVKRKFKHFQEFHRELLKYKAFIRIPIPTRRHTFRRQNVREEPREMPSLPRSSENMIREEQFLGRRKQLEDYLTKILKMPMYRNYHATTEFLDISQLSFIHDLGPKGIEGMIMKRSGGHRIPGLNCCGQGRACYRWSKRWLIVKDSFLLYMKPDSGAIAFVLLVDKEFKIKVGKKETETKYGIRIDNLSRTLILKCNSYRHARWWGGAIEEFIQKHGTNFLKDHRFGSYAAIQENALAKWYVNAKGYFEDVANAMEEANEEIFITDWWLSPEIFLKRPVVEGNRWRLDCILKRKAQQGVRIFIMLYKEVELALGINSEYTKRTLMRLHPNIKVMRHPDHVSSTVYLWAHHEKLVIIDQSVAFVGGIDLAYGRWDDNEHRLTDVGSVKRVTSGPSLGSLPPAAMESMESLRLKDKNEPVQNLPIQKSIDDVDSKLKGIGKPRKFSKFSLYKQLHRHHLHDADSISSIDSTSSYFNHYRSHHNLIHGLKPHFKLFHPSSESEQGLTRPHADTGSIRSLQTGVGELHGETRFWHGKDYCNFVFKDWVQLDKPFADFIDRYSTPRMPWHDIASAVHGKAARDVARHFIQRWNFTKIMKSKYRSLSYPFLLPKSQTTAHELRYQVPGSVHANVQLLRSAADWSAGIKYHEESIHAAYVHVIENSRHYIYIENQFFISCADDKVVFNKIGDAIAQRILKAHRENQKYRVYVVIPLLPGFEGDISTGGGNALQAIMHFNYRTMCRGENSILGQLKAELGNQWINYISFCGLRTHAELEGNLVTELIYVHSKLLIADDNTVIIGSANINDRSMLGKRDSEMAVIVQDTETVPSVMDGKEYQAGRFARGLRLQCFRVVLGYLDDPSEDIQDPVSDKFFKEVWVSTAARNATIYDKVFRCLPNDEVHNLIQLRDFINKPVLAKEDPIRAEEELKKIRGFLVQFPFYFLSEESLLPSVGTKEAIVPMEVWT
Description: Cells were lysed in passive lysis buffer (Promega). Cell lysates were incubated with biotinylated chemicals (A4333, 10 μM) or biotin (10 μM) at 37 °C for 1 h and treated with streptavidin beads (Thermo Scientific) at 20 °C for 1 h. After removing free biotinylated chemicals by washing with PBS, the samples were subjected to SDS‒PAGE followed by immunoblotting with an antibody against PLD[20].

[3] = system: FHC cells; test: Cell cycle analysis (BrdU/7-AAD flow cytometry), FHC; assay type: cell-based; conditions: FHC normal fetal colonic mucosa cells
Description: (§2) For cell cycle analysis, the cells were treated with Α3373 or 5-FU. The cells were labeled with 10 μΜ bromodeoxyuridine (BrdU) for 2 h. Subsequently, the cells were stained with 7-aminoactinomycin D (7-AAD, Invitrogen) and a fluorescein isothiocyanate (FITC)-conjugated anti-BrdU antibody (Invitrogen). Apoptotic cells were detected using an Annexin V-FITC Apoptosis Detection Kit (BD Biosciences). The cells were analyzed using BD FACSAria III (BD Biosciences), and data analysis was performed using FlowJo v10.0 (BD Biosciences).

[4] = system: DLD1 cells; test: Cell cycle analysis (BrdU/7-AAD flow cytometry), DLD1; assay type: cell-based
Description: as §2

[5] = system: FHC cells; test: Apoptosis assay (annexin V flow cytometry), FHC; assay type: cell-based
Description: as §2

[6] = system: DLD1 cells; test: Apoptosis assay (annexin V flow cytometry), DLD1; assay type: cell-based
Description: as §2

[7] = system: PLD; test: PLD activity assay in HCT 116 cells; assay type: cell-based; conditions: at 10 μM (Fig. 1c)
Description: as §1

## O=C(CCCC[C@@H]1SC[C@@H]2NC(=O)N[C@@H]21)NNC(=O)c1ccc2[nH]c(C(=O)Nc3cc(C(F)(F)F)cc(C(F)(F)F)c3)cc2c1 [Compound A4333]
[1]
  PLD inhibition, in words: still potent for PLD inhibition
[2]
  interaction with PLD1 (pull-down): interacted with PLD1

## O=c1[nH]cc(F)c(=O)[nH]1 [Compound 5-FU, 5-fluorouracil, reference compound]
[3]
  cell cycle / S phase in FHC cells, in words: decreased the S phase population
[4]
  cell cycle / proliferation of CRC cells, in words: decreased the S phase population
[5]
  apoptosis of FHC cells, in words: increased the apoptosis of both CRC and FHC cells
[6]
  apoptosis of CRC cells, in words: increased the apoptosis of both CRC and FHC cells

## C[C@@H](CN1CCC(n2c(=O)[nH]c3cc(Cl)ccc32)CC1)NC(=O)c1ccc2ccccc2c1 [VU0155069, reference compound]
[7]
  PLD activity remained: 30.4%
